Among the data in PubChem BioAssay (NCI) are GI50 and TGI values, retold here.

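1) Cells in 96-well plates. 2) Compound, 48 h, 5 concentrations. 3) Linear interpolation between surrounding doses. 4) Unreached endpoint = highest concentration. At the GI50, growth is halved. TGI marks complete inhibition of growth.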

Common to all, as to assay: DTP human tumour cell line panel, 48 h
Test [1] deals with HL-60(TB) leukemia.
For test [2], the system named is HCT-15 colon.
Test [3] relates to NCI-H23 lung.
Test [4] deals with OVCAR-4 ovarian.
The subject of test [5] is MCF7 breast.
The subject of test [6] is ACHN renal.
For test [7], the system named is TK-10 renal.
The subject of test [8] is SNB-19 CNS.
Test [9] relates to SF-539 CNS.
In test [10] the test system is OVCAR-5 ovarian.

As usually defined, the GI50 is the concentration at which growth is held to half of that of the control. The TGI is the concentration at which net growth stops. Low readings indicate greater sensitivity of the cells, high ones lower sensitivity of the cells. In the case of `CN(C)C(=O)c1cc2cnc(Nc3ccc(-c4csc5c(=O)cc(N6CCOCC6)oc45)cc3)nc2n1C1CCCC1`, the concentration for 50% growth inhibition (GI50) in test [1] is 0.0877 µM; in [2], 0.224 µM; in test [3] it was 0.182 µM; in test [4], 293 nM; in test [5] it was 0.0881 µM; in test [6], 0.187 µM. In addition, the figures for the GI50 in [7], in [8] and in [9] were 0.194 µM, 0.217 µM and 0.154 µM, respectively. Moreover, the TGI in [1] was 0.698 µM; in test [2], 1.35 µM; in test [3], 0.87 µM; in test [4] it was over 53.7 µM; in test [5], 1.01 µM; in test [6] it was 1.25 µM. Also, the TGI in test [7] is over 100 µM; in test [8], over 28.5 µM; in test [9], 0.417 µM.
For the molecule `Cc1ccc2c(O)c(O)cc(NC(C)CCCN)c2n1` (stereo unspecified), the GI50 in [10] was 7.36 µM; in [1], 10.7 µM; in test [2], over 79.1 µM; in test [3], 3.3 µM; in [4], 2880 nM; in test [5], 2.65 µM. For the same molecule, the results for the GI50 in test [6], in [7] and in test [9] were over 100 µM, over 100 µM and 3.83 µM, respectively. Also, the TGI in test [10] was 25.2 µM; in test [1] it was 37.8 µM; in [2], over 100 µM; in test [3], 19.3 µM; in test [4] it was 9.88 µM; in test [5] it was 9.82 µM. For the same molecule, the results for the TGI in [6], in [7] and in test [9] were over 100 µM, over 100 µM and 17.2 µM, respectively.
In the case of `COc1ccccc1C#Cc1ccccc1C#CCCCCCC#Cc1ccccc1C#Cc1ccccc1OC`, the GI50 in [10] was over 100 µM; in [2], 40.9 µM; in [3], 43.9 µM; in test [4], 13700 nM; in test [5] it was 17.3 µM; in test [6], over 100 µM. In addition, the GI50 in [7], in test [8] and in test [9] was over 100 µM throughout. The TGI in test [10] was over 100 µM; in [2] it was over 100 µM; in test [3] it was over 100 µM; in [4], 84.4 µM; in test [5], over 100 µM; in [6], over 100 µM. The TGI in [7], in test [8] and in test [9] was over 100 µM each time.
Regarding `COc1ccc(/C=C\c2cc(OC)c(OC)c(OC)c2)cc1OC(=O)CCC(=O)O`, the TGI is under 0.0001 µM in test [1]; over 100 µM in test [2]; over 100 µM in test [3]; over 100 µM in test [4]; over 100 µM in test [5]; over 100 µM in [6]. Further, the TGI in test [7] and in test [8] was over 100 µM each time.
`COc1ccc(-n2c3c(c4c(CN5CCOCC5)c(O)ccc42)CCc2ccccc2C3=O)cc1`: the GI50 in [10] was 34.8 µM; in [1], 22.3 µM; in [2], over 100 µM; in [3] it was 24.9 µM; in [5], over 100 µM; in test [6] it was over 100 µM. Also, the GI50 was over 100 µM in [7], over 100 µM in test [8] and 61 µM in test [9]. In addition, the TGI in [10], in test [1], in test [2], in [3], in [5] and in test [6] was over 100 µM in each case. For the same molecule, the TGI in test [7], in test [8] and in test [9] was over 100 µM in each case.
As to `Cc1cc(=O)oc2cc(OCc3c(F)cccc3Cl)ccc12`, the TGI in test [10], in test [1], in test [3], in [4], in [5] and in test [6] was over 100 µM in each case. Besides, the TGI in [7] was over 100 µM; in test [8], over 100 µM; in test [9], 48.7 µM.
As to `Cc1ccc2c(c1)NC(=O)CC(c1ccccc1)=N2`, the TGI in test [10], in test [2], in test [3], in [4], in test [5] and in test [6] was over 100 µM each time. For the same molecule, the TGI in test [7], in [8] and in test [9] was over 100 µM throughout.
Turning to `Cc1ccc(-c2cc(C3=CC(=O)C=CC3=O)n(-c3ccc(S(N)(=O)=O)cc3)n2)cc1`, the GI50 in test [10] is 35.9 µM; in [1] it was 37.3 µM; in test [2], 58.2 µM; in test [3] it was 32.9 µM; in [5], 53.1 µM; in [6] it was 42.9 µM. The GI50 in test [7] was 8.54 µM; in [8], 63.7 µM. In addition, the TGI in test [10], in [1], in test [2], in test [3], in test [5] and in test [6] was over 100 µM each time. Further, the TGI in [7] is 48.7 µM; in [8], over 100 µM.
With `CC(=O)OC1CC2(O)C3CCC4CC(O)CCC4(C)C3CCC2(C)C1C1=CC(=O)OC1` (stereo unspecified), the TGI in [10] was found to be 0.451 µM; in test [1], 0.237 µM; in test [2] it was 0.253 µM; in test [3], 0.137 µM; in test [4] it was 0.19 µM; in test [6] it was 0.147 µM. Besides, the TGI in test [7] was 0.489 µM; in test [8] it was 1.25 µM; in [9] it was 0.113 µM.
For the molecule `O=Nc1ccc2ccccc2c1O`, the GI50 was 14.1 µM in [10]; 10.2 µM in [2]; 3.18 µM in test [3]; 1890 nM in [4]; 3.17 µM in test [5]; 5.5 µM in test [6]. Also, the GI50 is 11.8 µM in [7], 15 µM in [8] and 20.8 µM in [9]. Further, the TGI in test [10] turned out to be 30.4 µM; in test [2] it was 30.8 µM; in test [3] it was 16.1 µM; in test [4] it was 5.32 µM; in [5], 12.5 µM; in [6], 18.4 µM. Also, the TGI in test [7] came out at 24.5 µM; in test [8], 28.4 µM; in test [9], 37.2 µM.
